A value given as a limit tells only on which side of the number the result lay.

For one test, the target named is T1, FGFR2 (Homo sapiens, UniProt P21802).
T1 construct: made in house; host or cells: E. coli (BL21-derived), T7 phage
In words: Kinase binding assay (kinase-tagged T7 phage, affinity beads, qPCR), Kd. Conditions: read-out: FGFR2 (Kd nM). In a few lines: (§1)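 Phage-tagged kinase capture on small-molecule affinity resin, compound competition, qPCR quantitation; Kd from Levenberg-Marquardt Hill fit.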

The target in another test is T2, FGFR1 (Homo sapiens, UniProt P11362).
T2 construct: made in house; host or cells: E. coli (BL21-derived), T7 phage
T2 sequence (P11362 22-822): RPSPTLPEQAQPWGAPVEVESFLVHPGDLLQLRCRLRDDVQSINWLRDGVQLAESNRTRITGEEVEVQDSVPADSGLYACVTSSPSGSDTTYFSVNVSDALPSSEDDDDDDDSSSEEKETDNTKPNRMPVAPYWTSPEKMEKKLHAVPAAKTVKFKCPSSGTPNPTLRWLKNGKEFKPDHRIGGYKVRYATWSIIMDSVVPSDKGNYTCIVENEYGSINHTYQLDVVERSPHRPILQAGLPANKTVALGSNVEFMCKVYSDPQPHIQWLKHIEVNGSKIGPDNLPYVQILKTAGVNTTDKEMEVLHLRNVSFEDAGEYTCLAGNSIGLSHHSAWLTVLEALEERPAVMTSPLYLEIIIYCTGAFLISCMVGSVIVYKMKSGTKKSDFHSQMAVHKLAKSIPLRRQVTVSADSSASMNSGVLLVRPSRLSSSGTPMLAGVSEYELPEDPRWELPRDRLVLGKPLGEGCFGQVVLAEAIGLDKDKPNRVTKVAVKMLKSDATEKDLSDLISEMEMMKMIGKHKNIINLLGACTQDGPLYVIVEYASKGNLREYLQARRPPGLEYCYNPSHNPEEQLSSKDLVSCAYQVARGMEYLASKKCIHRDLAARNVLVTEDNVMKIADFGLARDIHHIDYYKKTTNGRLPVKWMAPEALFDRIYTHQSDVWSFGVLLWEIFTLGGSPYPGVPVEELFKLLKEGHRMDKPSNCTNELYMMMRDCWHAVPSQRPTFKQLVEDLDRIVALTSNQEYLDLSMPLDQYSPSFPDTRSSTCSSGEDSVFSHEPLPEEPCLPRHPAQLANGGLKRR
The test is described as above. Conditions: read-out: FGFR1 (Kd nM). In a few lines:
as §1

The target in another test is T3, FGFR3 (V555M) (Homo sapiens, UniProt P22607, V555M).
T3 construct: made in house; host or cells: E. coli (BL21-derived), T7 phage
T3 sequence (P22607 23-806 V555M): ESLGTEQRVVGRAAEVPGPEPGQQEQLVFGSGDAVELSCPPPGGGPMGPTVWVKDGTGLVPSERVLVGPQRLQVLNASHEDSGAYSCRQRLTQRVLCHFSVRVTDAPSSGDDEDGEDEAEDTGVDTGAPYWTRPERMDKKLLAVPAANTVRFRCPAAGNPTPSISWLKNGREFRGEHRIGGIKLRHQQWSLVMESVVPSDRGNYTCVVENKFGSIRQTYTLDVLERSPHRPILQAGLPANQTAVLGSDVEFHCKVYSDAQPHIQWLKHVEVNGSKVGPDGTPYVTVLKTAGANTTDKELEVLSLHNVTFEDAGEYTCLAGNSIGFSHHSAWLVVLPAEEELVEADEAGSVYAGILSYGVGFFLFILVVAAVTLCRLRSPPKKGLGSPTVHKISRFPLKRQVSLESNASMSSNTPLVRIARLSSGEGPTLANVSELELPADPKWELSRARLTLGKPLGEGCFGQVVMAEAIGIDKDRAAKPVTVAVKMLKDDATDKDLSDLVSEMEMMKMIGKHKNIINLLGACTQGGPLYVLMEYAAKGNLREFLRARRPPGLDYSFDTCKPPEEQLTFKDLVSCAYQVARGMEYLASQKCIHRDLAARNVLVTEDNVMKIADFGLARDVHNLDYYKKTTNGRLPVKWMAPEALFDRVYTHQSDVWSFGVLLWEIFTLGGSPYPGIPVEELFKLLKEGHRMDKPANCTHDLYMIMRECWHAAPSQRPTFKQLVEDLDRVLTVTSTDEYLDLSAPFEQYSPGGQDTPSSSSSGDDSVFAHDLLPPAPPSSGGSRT
The test is described as above. Conditions: V555M mutant; read-out: FGFR3 (V555M) (Kd nM). In a few lines: as §1

Another test concerns the target T4, FGFR3 (Homo sapiens, UniProt P22607).
T4 construct: made in house; host or cells: E. coli (BL21-derived), T7 phage
The description is as above. Particulars: read-out: FGFR3 (Kd nM). In a few lines: as §1

The next test concerns the target T5, FGFR4 (Homo sapiens, UniProt P22455).
T5 construct: made in house; host or cells: E. coli (BL21-derived), T7 phage
The description is as above. Conditions: read-out: FGFR4 (Kd nM). In outline: as §1

Test [1] relates to HuH7 cell line (FGF19 amplification). In words: Cancer cell line cell viability assay (Cell Titer-Glo), 120 hr. Type of test: cell-based. Particulars: Homo sapiens, Huh-7. The text has this:
Experimental Purpose: To detect the change of intracellular ATP by Cell Titer-Glo® and to evaluate the inhibitory effect of the compounds on cancer cell lines by determining the in vitro IC50 value of the compounds.
Cell Titer-Glo® 2.0 Luminescent cell viability assay reagent was purchased from Promega (Madison, WI). KG-1, KATO-III, and MDA-MB-453 cell lines were purchased from American Type Culture Collection (Manassas, VA). RT112/84 cell line was purchased from Millipore-Sigma (St. Louis, MO). HuH7 cells were purchased from Seikisui Xenotech (Kansas City, KS). RT112/84 and MDA-MB-453 cells were cultured in RPMI1640 media supplemented with 10% fetal bovine serum. KG-1 and KATO-III cell lines were cultured in IMDM media supplemented with 20% FBS. HuH7 cells were cultured in IMDM media supplemented with 10% FBS. Cultures were maintained at 37° C. in a humidified atmosphere of 5% CO2 and 95% air.
Cell Viability Assay Procedure: Cells were plated in 96-well clear bottom/white plates (Corning #3903) at a range of densities depending on the optimal assay window (5,000-20,000 cells/well in […] of media), incubated overnight. The next day, test compound DMSO stock solutions were made at 10 mM and […] final concentration. Compounds were then added to cells in a 9-dose, 4-fold dilution series starting at 3 μM with an HP 300e Digital Dispenser (each dose was applied in triplicate). DMSO was backfilled to each well up to 301 nL total volume of test compound+DMSO, and a total of 301 nL DMSO was added to a control/no test compound well in triplicate. The cells in cell culture plates were incubated with the compounds at 37° C. and 5% CO2 for 72 hours-120 hours depending on the cell line. Then 50 μl of Cell Titer Glo 2.0 reagent was added to each well of the cell culture plates. The contents were covered from light and mixed on an orbital shaker at room temperature for minimum of 10 min. Luminescence was recorded by a Clariostar Plus Microplate Reader (BMG Labtech, Cary, NC). Cells were assessed as a percentage of DMSO only treated control cells. Curves were plotted and IC50 values were calculated using the GraphPad Prism 9 program based on a sigmoidal dose-response equation (log (inhibitor) vs. response—Variable slope, 4-parameter).

T1 sequence (P21802 22-821): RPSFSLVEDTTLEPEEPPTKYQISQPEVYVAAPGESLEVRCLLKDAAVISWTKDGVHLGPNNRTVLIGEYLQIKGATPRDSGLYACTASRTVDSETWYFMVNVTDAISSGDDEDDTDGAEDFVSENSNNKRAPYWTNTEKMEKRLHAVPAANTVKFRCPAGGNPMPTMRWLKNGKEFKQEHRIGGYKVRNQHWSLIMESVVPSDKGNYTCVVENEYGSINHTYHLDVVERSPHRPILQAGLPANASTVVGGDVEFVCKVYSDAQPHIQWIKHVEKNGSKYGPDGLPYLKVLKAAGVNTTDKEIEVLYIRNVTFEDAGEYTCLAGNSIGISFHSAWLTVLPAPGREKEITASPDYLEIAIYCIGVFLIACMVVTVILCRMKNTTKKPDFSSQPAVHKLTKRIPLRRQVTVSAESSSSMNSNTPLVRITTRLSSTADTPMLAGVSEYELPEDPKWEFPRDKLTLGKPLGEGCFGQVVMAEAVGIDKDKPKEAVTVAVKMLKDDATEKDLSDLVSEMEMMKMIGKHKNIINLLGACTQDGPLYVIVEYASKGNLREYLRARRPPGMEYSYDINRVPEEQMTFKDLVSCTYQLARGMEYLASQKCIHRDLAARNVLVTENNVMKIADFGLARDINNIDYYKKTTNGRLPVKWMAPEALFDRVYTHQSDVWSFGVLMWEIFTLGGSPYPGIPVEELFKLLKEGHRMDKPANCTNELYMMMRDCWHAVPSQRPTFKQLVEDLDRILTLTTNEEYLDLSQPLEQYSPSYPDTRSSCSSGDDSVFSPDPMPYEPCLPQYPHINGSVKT
T4 sequence (P22607 23-806): as the sequence (P22607 23-806 V555M) above, with M533V counted along it
T5 sequence (P22455 22-802): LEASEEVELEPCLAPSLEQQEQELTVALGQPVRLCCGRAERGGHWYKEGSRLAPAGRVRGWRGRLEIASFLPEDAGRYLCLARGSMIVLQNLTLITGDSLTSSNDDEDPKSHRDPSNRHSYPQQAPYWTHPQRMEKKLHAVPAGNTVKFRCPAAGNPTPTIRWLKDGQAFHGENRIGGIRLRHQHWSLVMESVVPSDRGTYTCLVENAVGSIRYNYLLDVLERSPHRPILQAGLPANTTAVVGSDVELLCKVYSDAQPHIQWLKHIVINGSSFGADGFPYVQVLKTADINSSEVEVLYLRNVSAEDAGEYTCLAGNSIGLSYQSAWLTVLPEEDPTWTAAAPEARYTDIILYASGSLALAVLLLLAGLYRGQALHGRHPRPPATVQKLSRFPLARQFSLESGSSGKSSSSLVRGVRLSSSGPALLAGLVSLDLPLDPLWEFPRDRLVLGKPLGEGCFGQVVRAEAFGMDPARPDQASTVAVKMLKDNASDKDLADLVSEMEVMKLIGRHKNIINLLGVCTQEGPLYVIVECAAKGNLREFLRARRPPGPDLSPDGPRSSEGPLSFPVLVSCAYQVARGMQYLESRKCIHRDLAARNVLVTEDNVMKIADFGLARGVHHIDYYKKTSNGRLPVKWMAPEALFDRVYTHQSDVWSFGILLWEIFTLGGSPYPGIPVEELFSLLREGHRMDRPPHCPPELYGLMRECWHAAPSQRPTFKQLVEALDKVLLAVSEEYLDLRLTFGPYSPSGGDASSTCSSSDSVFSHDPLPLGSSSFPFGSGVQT

As for `Cc1ncc(Cl)c([C@@H](C)Oc2ccc3[nH]nc(-c4cnc(N5CC(C)(OC(C)C)C5)c(C#N)c4)c3c2)c1Cl` [Example 13, 5-[5-[(1R)-1-(3,5-dichloro-2-methyl-4-pyridyl)ethoxy]-1H-indazol-3-yl]-2-(3-isopropoxy-3-methyl-azetidin-1-yl)pyridine-3-carbonitrile], the Kd is over 1000 nM on FGFR2; over 1000 nM on FGFR1; 50 to 300 nM at FGFR3 (V555M); 50 to 300 nM on FGFR3; 1 to 50 nM on FGFR4. The compound also had a half-inhibitory concentration (IC50) in test [1] of 200 to 1000 nM.

With `C[C@@H](Oc1ccc2[nH]nc(-c3cnc(N4CC(C)(CNS(C)(=O)=O)C4)c(C#N)c3)c2c1)c1c(Cl)cncc1Cl` [Example 18, (R)-N-((1-(3-cyano-5-(5-(1-(3,5-dichloropyridin-4-yl)ethoxy)-1H-indazol-3-yl)pyridin-2-yl)-3-methylazetidin-3-yl)methyl)methane-sulfonamide], the Kd at FGFR2 is 50 to 300 nM; on FGFR1, 50 to 300 nM; at FGFR3 (V555M) it was 1 to 50 nM; at FGFR3, 1 to 50 nM; at FGFR4, 1 to 50 nM. The compound also showed an IC50 in test [1] of 0.1 to 50 nM.

As to `C[C@@H](Oc1ccc2[nH]nc(-c3cnc(N4CC(C)(N(C)C)C4)c(C#N)c3)c2c1)c1c(Cl)cncc1Cl` [Example 29, (R)-5-(5-(1-(3,5-dichloropyridin-4-yl)ethoxy)-1H-indazol-3-yl)-2-(3-(dimethylamino)-3-methylazetidin-1-yl)nicotinonitrile], the Kd at FGFR2 is 50 to 300 nM; at FGFR1, 50 to 300 nM; at FGFR3 (V555M) it was 1 to 50 nM; at FGFR3, 1 to 50 nM; at FGFR4, 1 to 50 nM. The compound also showed an IC50 in test [1] of 50 to 200 nM.

Consider `Cc1ncc(Cl)c([C@@H](C)Oc2ccc3[nH]nc(-c4cnc(N5CC(C)(NC6COC6)C5)c(C#N)c4)c3c2)c1Cl` [Example 30, 5-[5-[(1R)-1-(3,5-dichloro-2-methyl-4-pyridyl)ethoxy]-1H-indazol-3-yl]-2-[3-methyl-3-(oxetan-3-ylamino)azetidin-1-yl]pyridine-3-carbonitrile], for which the Kd at FGFR2, on FGFR1, on FGFR3 (V555M), on FGFR3 and at FGFR4 was 1 to 50 nM each time. Besides, in test [1], the IC50 lay within 0.1 to 50 nM.

For the compound `CCN(CC)C1(C)CN(c2ncc(-c3n[nH]c4ccc(O[C@H](C)c5c(Cl)cncc5Cl)cc34)cc2C#N)C1` [Example 31, 5-[5-[(1R)-1-(3,5-dichloro-4-pyridyl)ethoxy]-1H-indazol-3-yl]-2-[3-(diethylamino)-3-methyl-azetidin-1-yl]pyridine-3-carbonitrile], the Kd on FGFR2 lay in the range of 50 to 300 nM; on FGFR1 it was 1 to 50 nM; on FGFR3 (V555M), 1 to 50 nM; on FGFR3 it was 1 to 50 nM; on FGFR4, 1 to 50 nM. The compound also registered a concentration for half-maximal inhibition (IC50) in test [1] of 50 to 200 nM.

Take `CNC1(C)CN(c2ncc(-c3n[nH]c4ccc(O[C@H](C)c5c(Cl)cnc(C)c5Cl)cc34)cc2C#N)C1` [Example 32, 5-[5-[(1R)-1-(3,5-dichloro-2-methyl-4-pyridyl)ethoxy]-1H-indazol-3-yl]-2-[3-methyl-3-(methylamino)azetidin-1-yl]pyridine-3-carbonitrile]: the Kd was 50 to 300 nM on FGFR2; 1 to 50 nM on FGFR1; 1 to 50 nM at FGFR3 (V555M); 1 to 50 nM on FGFR3; 1 to 50 nM on FGFR4. Moreover, the concentration for half-maximal inhibition (IC50) in test [1] lay in the range of 50 to 200 nM.

`CCNC1(C)CN(c2ncc(-c3n[nH]c4ccc(O[C@H](C)c5c(Cl)cncc5Cl)cc34)cc2C#N)C1` [Example 35, (R)-5-(5-(1-(3,5-dichloropyridin-4-yl)ethoxy)-1H-indazol-3-yl)-2-(3-(ethylamino)-3-methylazetidin-1-yl)nicotinonitrile]: the Kd on FGFR2, at FGFR1, on FGFR3 (V555M), at FGFR3 and at FGFR4 was 1 to 50 nM throughout. Also, the IC50 in test [1] lay within 0.1 to 50 nM.

Consider `CCN(CC)C1(C)CN(c2ncc(-c3n[nH]c4ccc(O[C@H](C)c5c(Cl)cnc(C)c5Cl)cc34)cc2C#N)C1` [Example 36, 5-[5-[(1R)-1-(3,5-dichloro-2-methyl-4-pyridyl)ethoxy]-1H-indazol-3-yl]-2-[3-(diethylamino)-3-methyl-azetidin-1-yl]pyridine-3-carbonitrile], for which the Kd on FGFR2 lay within 50 to 300 nM; at FGFR1 it was 50 to 300 nM; at FGFR3 (V555M) it was 1 to 50 nM; on FGFR3 it was 1 to 50 nM; on FGFR4, 1 to 50 nM. The IC50 in test [1] is 200 to 1000 nM.

Consider `Cc1ncc(Cl)c([C@@H](C)Oc2ccc3[nH]nc(-c4cnc(N5CC(C)(N6CCOCC6)C5)c(C#N)c4)c3c2)c1Cl` [Example 38, 5-[5-[(1R)-1-(3,5-dichloro-2-methyl-4-pyridyl)ethoxy]-1H-indazol-3-yl]-2-(3-methyl-3-morpholino-azetidin-1-yl)pyridine-3-carbonitrile], for which the Kd on FGFR2 fell in the range of 50 to 300 nM; at FGFR1, 300 to 1000 nM; at FGFR3 (V555M), 1 to 50 nM; at FGFR3 it was 1 to 50 nM; on FGFR4, 1 to 50 nM. Also, the IC50 in test [1] was in the range of 50 to 200 nM.

On to `Cc1ncc(Cl)c([C@@H](C)Oc2ccc3[nH]nc(-c4cnc(N5CC(C)(N)C5)c(C#N)c4)c3c2)c1Cl` [Example 39, 2-(3-amino-3-methyl-azetidin-1-yl)-5-[5-[(1R)-1-(3,5-dichloro-2-methyl-4-pyridyl)ethoxy]-1H-indazol-3-yl]pyridine-3-carbonitrile], for which the Kd on FGFR2 was 50 to 300 nM; at FGFR1, 50 to 300 nM; on FGFR3 (V555M) it was 1 to 50 nM; on FGFR3 it was 1 to 50 nM; at FGFR4 it was 1 to 50 nM. In test [1], this compound had an IC50 of 50 to 200 nM.

Consider `Cc1ncc(Cl)c([C@@H](C)Oc2ccc3[nH]nc(-c4cnc(N5CC(C)(N(C)C)C5)c(C#N)c4)c3c2)c1Cl` [Example 45, 5-[5-[(1R)-1-(3,5-dichloro-2-methyl-4-pyridyl)ethoxy]-1H-indazol-3-yl]-2-[3-(dimethylamino)-3-methyl-azetidin-1-yl]pyridine-3-carbonitrile], for which the Kd on FGFR2 lay within 50 to 300 nM; on FGFR1, 50 to 300 nM; on FGFR3 (V555M), 1 to 50 nM; at FGFR3 it was 1 to 50 nM; on FGFR4 it was 1 to 50 nM. Also, the IC50 in test [1] fell in the range of 50 to 200 nM.

Regarding `Cc1ncc(Cl)c([C@@H](C)Oc2ccc3[nH]nc(-c4cnc(N5CC(C)(OC6CCC6)C5)c(C#N)c4)c3c2)c1Cl` [Example 46, (R)-2-(3-Cyclobutoxy-3-methylazetidin-1-yl)-5-(5-(1-(3,5-dichloro-2-methyl-pyridin-4-yl)ethoxy)-1H-indazol-3-yl)nicotinonitrile], the Kd at FGFR2 is over 1000 nM; at FGFR1 it was over 1000 nM; at FGFR3 (V555M) it was 50 to 300 nM; on FGFR3, 300 to 1000 nM; at FGFR4, 1 to 50 nM. This compound came in with an IC50 in test [1] of over 1000 nM.

Consider `COc1cc2[nH]nc(-c3cnc(N4CC5(CC5)C4)nc3)c2cc1O[C@H](C)c1c(Cl)cncc1Cl` [Example 62, 3-[2-(5-azaspiro[2.3]hexan-5-yl)pyrimidin-5-yl]-5-[(1R)-1-(3,5-dichloro-4-pyridyl)ethoxy]-6-methoxy-1H-indazole], for which the Kd at FGFR2, on FGFR1, at FGFR3 (V555M), at FGFR3 and on FGFR4 was 1 to 50 nM each time. In test [1], this compound displayed an IC50 of 0.1 to 50 nM.

Turning to `C[C@@H](Oc1cc2c(-c3cnc(N4CC(C)(N5CCOCC5)C4)c(C#N)c3)n[nH]c2cc1F)c1c(Cl)cncc1Cl` [Example 124, (R)-5-(5-(1-(3,5-dichloropyridin-4-yl)ethoxy)-6-fluoro-1H-indazol-3-yl)-2-(3-methyl-3-morpholinoazetidin-1-yl)nicotinonitrile], the Kd on FGFR2 was in the range of 50 to 300 nM; at FGFR1, 50 to 300 nM; at FGFR3 (V555M), 1 to 50 nM; on FGFR3 it was 1 to 50 nM; on FGFR4, 1 to 50 nM. The 50% inhibitory concentration (IC50) in test [1] lay in the range of 50 to 200 nM.

(Values after patent US20250368666A1, “INDAZOLE COMPOUNDS” (TYRA BIOSCIENCES, INC., priority 2022, published 2025).)
